pIC50: −log10 of the molar value.

One data set relates to mice. In words: Toxicology, 2 weeks dosing in mice. The format is in vivo. As to conditions: 3 to 25 mg/kg/day.
Data set [1] concerns Arachidonic Acid-Induced Ear Edema (AAEE). In words: Arachidonic Acid-Induced Ear Edema (AAEE) in the mouse, anti-inflammatory activity. The format is in vivo, Female Charles River ICR mice. As to conditions: 1 h, ear plug weight one hour after arachidonic acid challenge. The procedure: This procedure is a modification of a procedure described by Young et al., J. Invest. Derm., 82:367-371 (1984).
Female Charles River ICR mice 23-27 grams are administered 0.2 ml of test material. The mice are later challenged with 20 µl of arachidonic acid applied topically to the ear. One hour after challenge, the weight of an 8 mm disc is determined. The mean increase in ear plug weight is calculated. Materials with anti-inflammatory activity inhibit the increase in ear plug weight.

The next data set relates to Human PBL. The data set is described as follows: Mitogenic response of human peripheral blood lymphocytes to concanavalin A (3H-thymidine uptake). The format is cell-based. The settings on record: Lymphocyte, concanavalin A 2 µg/ml, 48 hours, read-out: % Suppression. How it is done:
This procedure is a modification of a procedure initially described by Greaves, et al. ["Activation of human T and B lymphocytes by polyclonal mitogens," Nature, 248, 698-701 (1974)].
Human mononuclear cells (PBL) are separated from heparinized whole blood by density gradient centrifugation in Ficoll-Paque (Pharmacia). After washing, 5 x 10^4 cells/well are cultured in microtiter plates with minimal essential media supplemented with 1% human serum, gentamicin, sodium bicarbonate, 2-mercaptoethanol, glutamine, non-essential amino acids, and sodium pyruvate. The mitogen concanavalin A (Sigma) is used at a concentration of 2 µg/ml. Test materials are tested at concentrations between 10^-4 and 10^-10 M, by addition to the culture at time 0. Cultures are set up in quadruplicate and incubated at 37°C in a humidified atmosphere with 5% CO2 for 48 hours. A pulse of 1.0 µCi/well of ^3H-thymidine is added for the last 4 hours. Cells are collected on glass fiber filters with an automatic harvester and radioactivity is measured by standard scintillation procedures. The 50% inhibitory concentration ("IC50") for mitogenic stimulation is determined graphically. The compounds of the present invention show immunosuppressive activity when tested by this method.
The % suppression represents test well counts minus background (wells with no concanavalin A) divided by control well counts (wells with no compound) minus background times 100.

The target in a further data set is Human Lymphocyte PDE IV. The data set is described as follows: Human Lymphocyte cAMP Phosphodiesterase Assay (inhibition of PDE IV). Type of data set: biochemical. As to conditions: Inhibition of Human Lymphocyte PDE IV (human B cell line 43D supernatant). How it is done:
Human B cell line (43D) was cultured at 37°C in 7% CO2 in RPMI 1640 with L-glutamine and 10% Nu-Serum. Prior to the assay ∼1.5x10^8 cells were centrifuged at 1000 rpm for 10 minutes in a table top clinical centrifuge. The pellet was resuspended in 2-3 ml of 45 mM Tris-HCl buffer, pH 7.4. The suspension was homogenized and centrifuged at 12,000 x g 4°C for 10 minutes. The supernatant was diluted to 28 ml with Tris-HCl buffer and used directly in the assay or stored at -20°C. The final concentration of DMSO in the PDE incubation medium was 1%. Nitraquazone was included in each assay (10 and 100µM) as a reference standard.
The phosphodiesterase incubation medium contained 10 mM Tris-HCl buffer, pH 7.7, 10 mM MgSO4, 0.1-1µM […] (0.2 µCi) in a total volume of 1.0 ml. Following addition of the enzyme, the contents were mixed and incubated for 10 min at 30°C. The reaction was terminated by immersing the tubes in a boiling-water bath for 90 sec. After the tubes were cooled in an ice-water bath, 0.1 ml (100µg) of 5'-nucleotidase from snake venom (Crotalus atrox, Sigma V-7000) was added to each tube. The contents were mixed and incubated for 30 min at 30°C. The nucleotidase reaction was terminated by immersing the tubes in a boiling water bath for 60 sec. […]

Data set [2] deals with plaque-forming cells (PFC). The data set is described as follows: Hemolytic Plaque Forming Cell (PFC) Assay, immunosuppressive activity. The settings on record: Mus musculus, 96 h; oral dosage form; mice sensitized with SRBC; spleens taken four days after SRBC inoculation; read-out: ED50 (Immune PFC). The format is in vivo, C3H female mice. The text has this:
This procedure is a modification of "The agar plaque technique for recognizing antibody producing cells," a procedure initially described by Jerne, et al. [Cell-bound Antibodies, Amos and Kaprowski editors (Wistar Institute Press, Philadelphia, 1963) p. 109].
Groups of 5-6 adult C3H female mice were sensitized with 1.25 x 10^8 sheep red blood cells (SRBC) and simultaneously treated with an oral dosage form of the test material in an aqueous vehicle. Animals in a control group receive the same volume of vehicle. Four days after SRBC inoculation, spleens are dispersed in glass homogenizers. The number of nucleated cells (WBC) is determined and the spleen cell suspension is mixed with SRBC, guinea pig complement and agar solution at 0.5% concentration. Aliquots of the above mixture (0.1 ml) are dropped on four separate quadrants of a Petri dish and are covered with cover slips. After two hours incubation at 37°C, areas of hemolysis around plaque-forming cells (PFC) are counted with a dissecting microscope. Total WBC/spleen, PFC/spleen and PFC/10^6 WBC (PPM) are calculated for each mouse spleen. Geometric means of each treatment group are then compared with the vehicle-treated control group.

The ED50 is the dose at which the effect has come halfway, by size or by number of responders. What is called pIC50 is the negative decadic logarithm of the IC50, by convention in mol/L. As for `O=c1c2cccnc2c(-c2cccc([N+](=O)[O-])c2)nn1Cc1ccncc1` [Compound I, 6-(4-pyridylmethyl)-8-(3-nitrophenyl)pyrido[2,3-d]pyridazin-5-one], in the data set with mice, the “CONCLUSION (mortality)” value is reported as “no mortality occurred at any of the dose levels tested”. Also, in data set [1], the median effective dose (ED50) was 0.003 mg/kg. In the data set on Human PBL, the inhibition at 0.1 µM stood at 83%, the inhibition at 1 µM was found to be 80%, the inhibition at 10 µM is 85% and the inhibition at 100 µM was 100%. Besides, at Human Lymphocyte PDE IV, the pIC50 is 9.64. Moreover, in data set [2], the ED50 is 1 mg/kg.

As for `O=c1c2cccnc2c(-c2cccc(Cl)c2)nn1Cc1ccncc1` [Compound II, 6-(4-pyridylmethyl)-8-(3-chlorophenyl)pyrido[2,3-d]pyridazin-5-one], the “CONCLUSION (mortality)” value in the data set with mice is on record as “no mortality occurred at any of the dose levels tested”. Further, it took a dose of 0.009 mg/kg to reach the 50% effect level in data set [1] (ED50). For the same compound, in the data set with Human PBL, the inhibition at 0.1 µM was determined as 74%, the inhibition at 1 µM was determined as 83%, the inhibition at 10 µM was 87% and the inhibition at 100 µM is 100%. Besides, the negative-log IC50 (pIC50) on Human Lymphocyte PDE IV was 9.00. Besides, the ED50 in data set [2] worked out at 3 mg/kg.

The values above are taken from EP0612321B1, “PYRIDO PYRIDAZINONE AND PYRIDAZINTHIONE COMPOUNDS WITH PDE IV INHIBITING ACTIVITY” (SYNTEX (U.S.A.) INC., priority 1991, dated 1993).
